Test results taken from article PMC8747000, “Synthesis, Pharmacological Evaluation, and Computational Studies of Cyclic Opioid Peptidomimetics Containing β^3-Lysine” (Molecules, 2021).
Where two headings read alike, the source gives them in different places. Peptide text beside a SMILES is read from it.

Assays:
[1] = molecular target: T1, DOR (Homo sapiens, UniProt P41143); experiment: Calcium mobilization assay, CHO-DOR cells; format: cell-based; parameters: expressed in transfected cells; host or cells: CHO cells (gift from Prof. Girolamo Calo, University of Padova); details: n ≥ 3; for DOR pEC50 (CL95%): CHO cells co-expressing human recombinant DOR and GαqG66Di5, Fluo-4 AM fluorescence, FlexStation II; for DOR α ± SEM (intrinsic activity): Emax ratio of tested compound and standard agonist DPDPE, CHO cells co-expressing human DOR and GαqG66Di5
[2] = molecular target: T1, DOR; experiment: Opioid receptor binding assay, competitive displacement of [3H]deltorphin-2; parameters: purchased PerkinElmer; host or cells: CHO cells
Protocol: (§1) The binding affinities of cyclopeptides RP-171 and RP-172 toward MOR, DOR, and KOR were determined by competitive binding against [^3H]DAMGO, [^3H][D-Ala^2]deltorphin-2, and U-69593, respectively, using membranes of CHO cells transfected with opioid receptors and are summarized in Table 1.
(§2) The opioid receptor binding assays were performed according to the described method, using commercial membranes of Chinese Hamster Ovary (CHO) cells transfected with human opioid receptors. The binding affinities for MOR, DOR, and KOR were determined by radioligand competition analysis using [^3H]DAMGO, [^3H]deltorphin-2, and [^3H]U-69593, respectively, as specific radioligands, respectively. Membrane preparations were incubated at 25 °C for 120 min with appropriate concentrations of a tested peptide in the presence of 0.5 nM radioligand in a total volume of 0.5 ml of 50 mM Tris/HCl (pH 7.4) containing bovine serum albumin (BSA) (1 mg/mL), bacitracin (50 µg/mL), bestatin (30 µM), and captopril (10 µM). Non-specific binding was determined in the presence of 1 µM naloxone. Incubations were terminated by the rapid filtration through the GF/B Whatman (Brentford, UK) glass fiber strips (pre-soaked for 2 h in 0.5% (v/v) polyethylamine) using Millipore Sampling Manifold (Billerica, MA, USA). The filters were washed three times with 4 ml of ice-cold Tris buffer solution. The bound radioactivity was measured in a Packard Tri-Carb 2100 TR liquid scintillation counter (Ramsey, MN, USA) after overnight extraction of the filters in 4 mL of a Perkin Elmer Ultima Gold scintillation fluid (Wellesley, MA, USA). Three independent experiments for each assay were carried out in duplicate. The data were analyzed by a nonlinear least square regression analysis computer program Graph Pad PRISM 6.0 (Graph Pad Software Inc., San Diego, CA, USA). The IC50 values were determined from the logarithmic concentration–displacement curves, and the values of the inhibitory constants (Ki) were calculated according to the equation of Cheng and Prusoff.

[3] = molecular target: T2, MOR (Homo sapiens, UniProt P35372); experiment: Opioid receptor binding assay, competitive displacement of [3H]DAMGO; parameters: purchased PerkinElmer; host or cells: CHO cells
Protocol: as §1, §2

[4] = molecular target: T3, KOR (Homo sapiens, UniProt P41145); experiment: Opioid receptor binding assay, competitive displacement of [3H]U-69593; parameters: purchased PerkinElmer; host or cells: CHO cells
Protocol: as §1, §2

[5] = molecular target: T3, KOR; experiment: Calcium mobilization assay, CHO-KOR cells; format: cell-based; parameters: expressed in transfected cells; host or cells: CHO cells (gift from Prof. Girolamo Calo, University of Padova); details: for KOR α ± SEM (intrinsic activity): Emax ratio of tested compound and standard agonist dynorphin A, CHO cells co-expressing human KOR and Gαqi5
[6] = compared with EM-2; cited from earlier work
Description: Endomorphins are very short peptides lacking reactive side chain groups, which makes their cyclization difficult. […] In order to obtain cyclic analogs based on the structure of EM-2 but still to preserve the free N-terminal amino group, we introduced into the sequence of EM-2 additional amino acids with functionalized side chains. A pentapeptide analog Tyr-c[D-Lys-Phe-Phe-Asp]NH2 (designated RP-170), ...

[7] = molecular target: T2, MOR; experiment: Calcium mobilization assay, CHO-MOR cells; format: cell-based; parameters: expressed in transfected cells; host or cells: CHO cells (gift from Prof. Girolamo Calo, University of Padova); details: for MOR α ± SEM (intrinsic activity): Emax ratio of tested compound and standard agonist dermorphin, CHO cells co-expressing human MOR and Gαqi5
[8] = Reversed-phase HPLC retention (chromatographic behavior as indication of lipophilicity); format: physicochemical; details: RP-HPLC, Vydac C18 column (5 μm, 4.6 x 250 mm); A 0.1% TFA in water, B 80% acetonitrile in water with 0.1% TFA; linear gradient 0–100% B over 50 min; 1 mL/min; uncalibrated retention time
Description: During the routine LC-MS analysis of analogs RP-171 and RP-172, we noticed a distinct difference in retention times and MS^n patterns for these diastereoisomeric peptides. To confirm our observation, we subjected a mixture of these peptides to LC-MS and MS^n experiments. […] It is interesting that the elution order from the biphenyl column was the same as from the C18 column.
All protected α-amino acids were purchased from Bachem A (Bubendorf, Switzerland). Opioid radioligands, [^3H]DAMGO, [^3H]deltorphin-2, and [^3H]U-69593, and human recombinant opioid receptors were purchased from PerkinElmer (Krakow, Poland). GF/B glass fiber strips were obtained from Whatman (Brentford, UK). Purity of peptides was determined by RP-HPLC and exact mass. Analytical and semi-preparative RP-HPLC was performed using Waters Breeze instrument (Milford, MA, USA) with dual absorbance detector (Waters 2487, MA, USA). […] For LC-MS experiments, Aeris Peptide C18 and Kinetex Biphenyl (Phenomenex, Torrance, CA, USA) were used, in a gradient reversed-phase mode, from 5 to 80% acetonitrile in water (both containing 0.1% HCOOH). ^1H NMR spectra were recorded on a 500 MHz Brucker instrument in DMSO-d6, using residual DMSO as a resonance reference at 2.5 ppm. […]

[9] = membranes of CHO cells transfected with human opioid receptors, 0.5 nM [3H]deltorphin-2, 25 °C, 120 min, 50 mM Tris/HCl pH 7.4, Cheng-Prusoff, mean ± SEM, n = 3, read-out: Ki DOR
[10] = membranes of CHO cells transfected with human opioid receptors, 0.5 nM [3H]DAMGO, 25 °C, 120 min, 50 mM Tris/HCl pH 7.4, Cheng-Prusoff, mean ± SEM, n = 3, read-out: Ki MOR
[11] = CHO cells co-expressing human recombinant MOR and Gαqi5, Fluo-4 AM fluorescence, FlexStation II, n ≥ 3, read-out: MOR pEC50 (CL95%) (converted)

Row | SMILES | DOR pEC50 (CL95%) [1] | DOR α ± SEM (intrinsic activity) [1] | Ki ([2]; SEM) | Ki ([3]; SEM) | Ki ([4]; SEM) | EC50 [5] | stability in the rat brain homogenate [6] | EC50 [7] | HPLC tR [8] | Ki [2, 9] | Ki [3, 10] | Ki ([4]; membranes of CHO cells transfected with human opioid receptors, 0.5 nM [3H]U-69593, 25 °C, 120 min, 50 mM Tris/HCl pH 7.4, Cheng-Prusoff, mean ± SEM, n = 3, SEM, read-out: Ki KOR) | loss of affinity for KOR as compared with the parent RP-170 ([4]; ratio of Ki values versus RP-170) | EC50 ([5]; CHO cells co-expressing human recombinant KOR and Gαqi5, Fluo-4 AM fluorescence, FlexStation II, n ≥ 3, read-out: KOR pEC50 (CL95%) (converted)) | KOR α ± SEM (intrinsic activity) ([5]; n ≥ 3) | KOR α ± SEM (intrinsic activity) ([5]; n ≥ 3, SEM) | EC50 [7, 11] | MOR α ± SEM (intrinsic activity) ([7]; n ≥ 3) | Ki ([4]; membranes of CHO cells transfected with human opioid receptors, 0.5 nM [3H]U-69593, 25 °C, 120 min, 50 mM Tris/HCl pH 7.4, Cheng-Prusoff, mean ± SEM, n = 3, read-out: Ki KOR) | KOR pEC50 (CL95%) ([5]; CHO cells co-expressing human recombinant KOR and Gαqi5, Fluo-4 AM fluorescence, FlexStation II, n ≥ 3)
1 | NC(=O)[C@@H]1CC(=O)NCCCC[C@@H](NC(=O)[C@@H](N)Cc2ccc(O)cc2)C(=O)N[C@@H](Cc2ccccc2)C(=O)N[C@@H](Cc2ccccc2)C(=O)N1 [RP-170, Tyr-c[D-Lys-Phe-Phe-Asp]NH2] (HELM PEPTIDE1{Y.[dK].F.F.D.[am]}$PEPTIDE1,PEPTIDE1,2:R3-5:R3$$$V2.0) | inactive | inactive | 198 ± 4.5 nM | 0.55 ± 0.02 nM | 1.52 ± 0.2 nM | 2.51 nM | much more stable than EM-2 | 1.17 nM | – | – | – | – | – | – | – | – | – | – | – | –
2 | NC(=O)[C@@H]1CC(=O)NCCC[C@@H](NC(=O)[C@@H](N)Cc2ccc(O)cc2)CC(=O)N[C@@H](Cc2ccccc2)C(=O)N[C@@H](Cc2ccccc2)C(=O)N1 [RP-171, Tyr-c[(R)-β^3-Lys-Phe-Phe-Asp]NH2] | inactive | inactive | – | – | – | – | – | – | 14.05 min | > 1000 nM | 29 ± 4.32 nM | 420 ± 23 nM | 276 fold | 1020 nM | 0.82 | 0.82 ± 0.05 | 135 nM | 0.82 ± 0.02 | – | –
3 | NC(=O)[C@@H]1CC(=O)NCCC[C@H](NC(=O)[C@@H](N)Cc2ccc(O)cc2)CC(=O)N[C@@H](Cc2ccccc2)C(=O)N[C@@H](Cc2ccccc2)C(=O)N1 [RP-172, Tyr-c[(S)-β^3-Lys-Phe-Phe-Asp]NH2] | inactive | inactive | – | – | – | – | – | – | 14.36 min | > 1000 nM | 950 ± 45 nM | – | – | – | inactive | – | 3550 nM | 0.45 ± 0.02 | > 1000 nM | inactive
